Article PMC11982498 (Redox Biology, 2025)

How the values were obtained:
[1] = target: ILPR promoter i-motif; assay: SPR binding to ILPR promoter i-motif; details: MES buffer pH 5.5
[2] = tested on: BCL-2 gene transcription in SH-SY5Y cells; assay: Real-time RT-PCR in 25 μM Aβ1-42 cell model, BCL-2; format: cell-based, human
Procedure: (§1) SH-SY5Y cells were treated with or without B14, and total RNA was subsequently isolated and purified. Reverse transcription was performed using a cDNA synthesis kit. The relative transcription levels of the genes were evaluated through quantitative real-time PCR using the SYBR Green-based method, as described in the Supplementary Date. Details regarding the primer sequences and the raw data can be found in Table S7 and Table S8.
(§2) ^a -∆∆Ct = -[(Ct value of genes in treated sample - Ct value of genes in control) - (Ct value of β-actin in treated sample - Ct value of β-actin in control)]. ^b F: The relative expression fold.
Experiment 2: The Ct values of BCL-2 and Bax in 25 μM Aβ1-42 model with different concentration of B14.
(§3) Total RNA was extracted from cells and mice liver tissue using RNAiso Plus (Takara, 9109, Japan). Following sample homogenization, chloroform was added, and the solution was allowed to have phase separation into an upper aqueous layer (containing RNA), an interphase, and a lower organic layer (containing DNA and proteins). RNA was precipitated from the aqueous phase using isopropanol, while DNA was precipitated from the aqueous-organic interphase using ethanol. Complementary DNA (cDNA) was synthesized using the One-Step RT-PCR Kit (Takara, Cat#639503, Japan).
(§4) Quantitative real-time polymerase chain reaction (qRT-PCR) was performed using the 2× RealStar SYBR Mixture (GenStar, Cat# A301-10, Guangzhou, China) on a LightCycler 480 II real-time PCR system (Roche, USA). Data were analyzed using the 2^−ΔΔCt method. Actin served as the internal control, and relative mRNA levels were normalized accordingly.

[3] = tested on: BCL-2 (BCL-2 IM) (DNA, i motif) CAGCCCCGCTCCCGCCCCCTTCCTCCCGCGCCCGCCCCT; assay: CD melting, 287 nm; details: K+ 100 mM KCl plus potassium phosphate; BPES buffer, pH 5.5; 20 μM B14 (DNA 1, 2 or 5 μM, prints disagree)
[4] = tested on: APP/PS1 transgenic mice; assay: TEM of hippocampus microstructure; format: in vivo; details: vs model group
Text: (§5) Five months old male APP/PS1 mice, weighing 25–33 g, were purchased from Guangdong Medical Laboratory Animal Center and housed in the Laboratory Animal Center of Sun Yat-sen University (Guangzhou, China) for experimentation. All procedures were approved by the Animal Care and Use Committee of Sun Yat-sen University and complied with legal requirements and national guidelines for the care and maintenance of laboratory animals (Approval No. SYSU-IACUC-2024-002032). The mice were housed in a specific pathogen-free environment with a controlled temperature of 22 ± 1 °C and a 12-h dark/light cycle. The mice were fed with a standard diet, and 30 mice were randomly divided into 6 groups (N = 5). Compound B14 was dissolved in saline and administered at doses of 10, 20, or 40 mg/kg. APP/PS1 male mice were grown until 6 months of age, and then injected intraperitoneally with compound B14 every other day for 60 days. Behavioral experiments were then conducted, and tissue specimens were collected for biochemical analysis.
After the behavioral tests, the mice were anesthetized and perfused with 0.1 M pre-cooled phosphate-buffered saline for 5 min, followed by 4 % pre-cooled paraformaldehyde until the mice were stiff. The hippocampi were then extracted and fixed in 3 % pre-cooled glutaraldehyde solution for 6 h, cut into 0.5–1 mm^3 blocks, and post-fixed in 1 % osmium tetroxide for 60 min. […]

[5] = target: T1, Aβ1-42 (Homo sapiens, UniProt P05067); assay: Dot blot of Aβ1-42 fibril aggregation; format: biochemical; details: 20 μM compound, 24 h
T1 construct: Aβ1-42 was purchased from Gill Biochemicals Ltd (Shanghai, China); purchased Gill Biochemicals Ltd (Shanghai, China)

[6] = tested on: RB (DNA, i motif) GCCGCCCAAAACCCCCCG; assay: thiazole orange displacement; details: K+ 100 mM KCl plus potassium phosphate; BPES buffer, pH 5.5, 25 °C; 1 μM DNA, 1 μM TO; displacement only 1 %
[7] = target: BCL-2 G-quadruplex (BCL-2 G4); assay: MST binding to BCL-2 G-quadruplex; details: Tris-HCl buffer pH 7.4
Procedure: After incubation of DNA with compound for 60 min, the sample was loaded in MST-grade glass capillaries. The intensity of the LED power was set at 20 %, and the MST laser was set at 40 %. The analyses were performed using a Monolith NT.115, and the fitting curve was obtained by using NT Analysis 1.5.41 via Hill fitting. The KD value represents the numeric equivalent of the concentration of B14 when the response is half of the plateau response (Rmax) of the fitting curve.

[8] = tested on: VEGF gene transcription in SH-SY5Y cells; assay: Real-time RT-PCR in SH-SY5Y cells, VEGF; format: cell-based, human
Procedure: as §1, §2
Experiment 1: SH-SY5Y cells were treated with different concentration of B14. The Ct values of BAX, VEGF, CMYC and BCL-2 were obtained.
as §3, §4

[9] = tested on: Aβ deposition in hippocampus of APP/PS1 mice; assay: Immunofluorescence of hippocampal Aβ deposition; format: in vivo; details: B14 10, 20, 40 mg/kg i.p. every other day
Text: as §5

[10] = tested on: HK-2 cells; assay: MTT cytotoxicity assay, HK-2; format: cell-based; details: Homo sapiens, incubation for 48 h
Procedure: SH-SY5Y cells, HepG2 cells, HK-2 cells and HT-22 cells were seeded on 96-well plates (5.0×10^3 per well) with 100 μL of culture medium, and incubated for 12 h at 37 °C in a humidified atmosphere with 5% CO2, and then exposed to various concentrations of B14. After 48 h of treatment at 37 °C in a humidified atmosphere with 5% CO2, 100 μL of 0.5 mg/mL MTT solution was added to each well, and the mixture was further incubated for 4 h. The cells in each well were then treated with DMSO (200 μL for each well), and the culture medium was siphoned off, and the absorbance was recorded at 570 nm. All drug doses were parallel tested in triplicate, and the cytotoxicity was evaluated based on the percentage of cell survival in a dose-dependent manner regarding the negative control. The final IC50 values were determined by using Graph Pad Prism 9.0.

T1 sequence (P05067 672-713 limits assumed): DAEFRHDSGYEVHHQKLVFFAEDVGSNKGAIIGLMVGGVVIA

O=C(CCN1CCOCC1)Nc1ccc2c(c1)c(=O)c1cc(NC(=O)CCN3CCOCC3)ccc1n2-c1ccc2occc2c1 [Compound B14]
Kd [1]: > 50 µM
-∆∆Ct, BCL-2 ([2]; 25 μM Aβ1-42 + 6.25 μM B14): -0.05
F = 2^-∆∆Ct (relative expression fold), BCL-2 ([2]; 25 μM Aβ1-42 + 6.25 μM B14): 1.04
-∆∆Ct, BCL-2 ([2]; 25 μM Aβ1-42 + 12.5 μM B14): -0.48
F = 2^-∆∆Ct (relative expression fold), BCL-2 ([2]; 25 μM Aβ1-42 + 12.5 μM B14): 1.40
-∆∆Ct, BCL-2 ([2]; 25 μM Aβ1-42 + 25 μM B14): -0.82
F = 2^-∆∆Ct (relative expression fold), BCL-2 ([2]; 25 μM Aβ1-42 + 25 μM B14): 1.76
ΔTm [3]: 11.26 °C
hippocampal ultrastructure (myelin, synapses, mitochondria; TEM) [4]: the degree of mitochondrial damage was much reduced
formation of Aβ fibers (dot blot) [5]: reduced the formation of Aβ fibers and greatly decreased Aβ self-aggregation
binding [6]: no
Kd [7]: 59.8 µM
-∆∆Ct, VEGF ([8]; 6.25 μM B14): -0.01
F = 2^-∆∆Ct (relative expression fold), VEGF ([8]; 6.25 μM B14): 1.00
-∆∆Ct, VEGF ([8]; 12.5 μM B14): -0.01
F = 2^-∆∆Ct (relative expression fold), VEGF ([8]; 12.5 μM B14): 1.00
-∆∆Ct, VEGF ([8]; 25 μM B14): -0.03
F = 2^-∆∆Ct (relative expression fold), VEGF ([8]; 25 μM B14): 1.02
hippocampal Aβ deposition [9]: significantly reduced in a dose-dependent manner
IC50 [10]: > 100 µM
